From US8841312B2, “Fused pyridine, pyrimidine and triazine compounds as cell cycle inhibitors” (Amgen Inc., priority 2007, dated 2014)
pIC50: −log10 of the molar value.

Legend:
Cdk4/CyclinD1 = Cdk4/CyclinD1 (Homo sapiens (Human), UniProt P11802); experiment: Cdk4 kinase inhibition assay with recombinant Cdk4/CyclinD1, Rb substrate, [33P]-ATP filter plate; assay type: biochemical; conditions: 25 μM ATP, read-out: Cdk 4 IC50
Procedure, shortened: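 Recombinant Cdk4/CyclinD1 or Cdk6/CyclinD3 phosphorylated Rb protein with [33P]-ATP for 1 h at room temperature. Protein was TCA-precipitated on filter plates and bound radioactivity counted. IC50 by nonlinear regression.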

Cdk6/CyclinD3 = Cdk6/CyclinD3 (Homo sapiens (Human), UniProt Q00534); experiment: Cdk6 kinase inhibition assay with recombinant Cdk6/CyclinD3, Rb substrate, [33P]-ATP filter plate; assay type: biochemical; conditions: 25 μM ATP, read-out: Cdk 6 IC50
Experimental: The Cdk4 and Cdk6 inhibitory activity of the compounds is measured with a kinase inhibition assay using recombinant Cdk4/CyclinD1 or Cdk6/CyclinD3 protein complexes. The protein substrate used in the assay is the retinoblastoma protein (Rb). The kinase reactions are carried out in a 96-well filter plate (MSDV N6B50, Millipore). […] The mixture is incubated at room temperature for 1 hour and the proteins precipitated with an equal volume of 20% TCA. The plates are washed with 10% TCA according to the manufacturer's instruction and dried at room temperature. The amount of the phosphorylated Rb is determined with a TopCount (PerkinElmer). The IC50 of a compound is determined by nonlinear regression curve fitting using software program Prism 5 (GraphPad Software).

Cdk4/CyclinD1, sequence (P11802 whole entry): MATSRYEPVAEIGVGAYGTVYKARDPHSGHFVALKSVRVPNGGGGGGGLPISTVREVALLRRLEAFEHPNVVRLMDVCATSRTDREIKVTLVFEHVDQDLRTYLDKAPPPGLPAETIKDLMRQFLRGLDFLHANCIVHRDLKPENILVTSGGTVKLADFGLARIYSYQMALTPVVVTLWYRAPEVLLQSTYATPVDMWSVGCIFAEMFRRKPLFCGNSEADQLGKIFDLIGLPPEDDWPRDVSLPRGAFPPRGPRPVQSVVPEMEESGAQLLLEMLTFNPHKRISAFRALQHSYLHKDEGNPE
Cdk4/CyclinD1, sequence (P24385 whole entry partner): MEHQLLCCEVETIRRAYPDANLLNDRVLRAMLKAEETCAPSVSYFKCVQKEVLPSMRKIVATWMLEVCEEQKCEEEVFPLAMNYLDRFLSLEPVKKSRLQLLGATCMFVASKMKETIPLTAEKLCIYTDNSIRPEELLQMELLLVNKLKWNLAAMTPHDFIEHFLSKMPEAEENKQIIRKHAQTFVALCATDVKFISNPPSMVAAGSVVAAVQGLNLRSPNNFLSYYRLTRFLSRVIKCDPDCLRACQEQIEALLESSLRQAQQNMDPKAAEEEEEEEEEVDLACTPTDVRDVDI
Cdk6/CyclinD3, sequence (Q00534 whole entry): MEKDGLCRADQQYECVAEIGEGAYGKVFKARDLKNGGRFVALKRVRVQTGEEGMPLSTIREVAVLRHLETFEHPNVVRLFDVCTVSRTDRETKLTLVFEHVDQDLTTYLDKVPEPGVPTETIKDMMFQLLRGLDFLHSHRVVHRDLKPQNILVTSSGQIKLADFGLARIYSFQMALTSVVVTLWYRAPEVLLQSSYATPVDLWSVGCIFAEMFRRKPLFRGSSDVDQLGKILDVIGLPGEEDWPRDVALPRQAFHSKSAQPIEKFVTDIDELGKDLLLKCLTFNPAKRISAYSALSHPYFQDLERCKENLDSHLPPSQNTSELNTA
Cdk6/CyclinD3, sequence (P30281 whole entry partner): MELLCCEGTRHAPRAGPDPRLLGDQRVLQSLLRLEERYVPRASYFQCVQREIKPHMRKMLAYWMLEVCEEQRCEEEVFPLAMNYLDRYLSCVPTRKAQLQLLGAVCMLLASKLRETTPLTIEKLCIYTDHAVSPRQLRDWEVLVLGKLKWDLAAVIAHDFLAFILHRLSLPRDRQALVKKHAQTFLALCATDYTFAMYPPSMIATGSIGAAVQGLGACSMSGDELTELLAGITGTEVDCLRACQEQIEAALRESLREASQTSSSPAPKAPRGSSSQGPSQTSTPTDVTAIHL

| Compound | pIC50 (Cdk4/CyclinD1) | pIC50 (Cdk6/CyclinD3) |
| --- | --- | --- |
| CCOC(=O)CN1CCN(c2ccc(Nc3ncc4c5ccncc5n(C5CCCC5)c4n3)nn2)CC1 [Example 217, ethyl (4-(6-((9-cyclopentyl-9H-pyrido[4′,3′:4,5]pyrrolo[2,3-d]pyrimidin-2-yl)amino)-3-pyridazinyl)-1-piperazinyl)acetate] | 8.44 | 8.01 |
| Fc1ccc(-n2c3cnccc3c3cnc(Nc4ccc(N5CCNCC5)cn4)nc32)cc1 [Example 15] | 8.12 | 7.89 |
| c1ccc2c(c1)c1cnc(Nc3ccc(N4CCNCC4)nn3)nc1n2C1CCCC1 [Example 307] | 7.96 | 8.06 |
| c1cc2c3cnc(Nc4cnc(N5CCNCC5)nc4)nc3n(C3CCCC3)c2cn1 [Example 8, 9-cyclopentyl-N-(2-(1-piperazinyl)-5-pyrimidinyl)-9H-pyrido[4′,3′:4,5]pyrrolo[2,3-d]pyrimidin-2-amine] | 9.89 | 8.96 |
| CN(C)C1CCN(c2ccc(Nc3ncc4c5ccncc5n(CCCO)c4n3)nc2)CC1 [Example 350] | 7.13 | 6.99 |
| OC1CCN(Cc2ccc(Nc3ncc4c5ccncc5n(C5CCCC5)c4n3)nc2)CC1 [Example 215, 1-((6-((9-cyclopentyl-9H-pyrido[4′,3′:4,5]pyrrolo[2,3-d]pyrimidin-2-yl)amino)-3-pyridinyl)methyl)-4-piperidinol] | 8.36 | 8.09 |
| CN(C)C1CCN(c2ccc(Nc3ncc4c5ccnc(F)c5n(CC5CC5)c4n3)nn2)CC1 [Example 169] | 6.85 | 6.82 |
| CCN(CCO)C1CCN(c2ccc(Nc3ncc4c5ccncc5n(C5CCCC5)c4n3)nn2)CC1 [Example 454] | 8.28 | 7.96 |
| O[C@@H]1CCC[C@@H]1n1c2cnccc2c2cnc(Nc3ccc(N4CCNCC4)cn3)nc21 [Example 361] | 7.36 | 7.24 |
| OCC1CCN(c2ccc(Nc3ncc4c5ccnc(F)c5n(C5CCCC5)c4n3)nc2)CC1 [Example 187, (1-(6-((9-Cyclopentyl-8-fluoro-9H-pyrido[4′,3′:4,5]pyrrolo[2,3-d]pyrimidin-2-yl)amino)-3-pyridinyl)-4-piperidinyl)methanol] | 8.54 | 8.55 |
| CN1CCN(c2ccc(Nc3ncc4c5ccccc5n(C5CCCC5)c4n3)nn2)CC1 [Example 301] | 7.51 | 7.66 |
| CN(CC(=O)O)C1CCN(c2ccc(Nc3ncc4c5ccncc5n(C5CCCC5)c4n3)nc2)CC1 [Example 471] | 8.39 | 7.74 |
| CN(C)C1CCN(C(=O)c2ccc(Nc3ncc4c5ccncc5n(C5CCCC5)c4n3)nc2)CC1 [Example 230, 9-Cyclopentyl-N-(5-((4-(dimethylamino)-1-piperidinyl)carbonyl)-2-pyridinyl)-9H-pyrido[4′,3′:4,5]pyrrolo[2,3-d]pyrimidin-2-amine] | 7.80 | 7.80 |
| c1ccc2c(c1)c1cnc(Nc3ccc(N4CCNCC4)cn3)nc1n2C1CCCC1 [Example 37, (9-Cyclopentyl-9H-pyrimido[4,5-b]indol-2-yl)-(5-piperazin-1-yl-pyridin-2-yl)-amine] | 8.37 | 8.92 |
| c1cnc2c(c1)c1cnc(Nc3ccc(N4CCNCC4)cn3)nc1n2C1CCCC1 [Example 35, (9-Cyclopentyl-9H-pyrido[3′,2′:4,5]pyrrolo[2,3-d]pyrimidin-2-yl)-(5-piperazin-1-yl-pyridin-2-yl)-amine] | 8.09 | 7.68 |
| N#Cc1nccc2c3cnc(Nc4ccc(N5CCNCC5)cn4)nc3n(C3CCCC3)c12 [Example 188, 9-Cyclopentyl-2-((5-(1-piperazinyl)-2-pyridinyl)amino)-9H-pyrido[4′,3′:4,5]pyrrolo[2,3-d]pyrimidine-8-carbonitrile] | 7.57 | 7.87 |
| CN(C)C1CC2CCC(C1)N2c1ccc(Nc2ncc3c4ccncc4n(C4CCCC4)c3n2)nc1 (stereo not shown) [Example 158, 9-cyclopentyl-N-(5-(3-(dimethylamino)-8-azabicyclo[321]oct-8-yl)-2-pyridinyl)-9H-pyrido[4′,3′:4,5]pyrrolo[2,3-d]pyrimidin-2-amine] | 8.27 | 8.28 |
